Test results as given in the NIST ThermoML archive (doi:10.1021/je2000217).

Test: cn = amount concentration of the nth substance listed, in mol/dm3
Details: 100 kPa, Liquid; for viscosity: Capillary tube (Ostwald / Ubbelohde) method; for mass density: Vibrating tube method

CCCCCCCCCCCCCCCC[N+](C)(C)C.[Br-] [N,N,N-trimethyl-1-hexadecanaminium bromide] + O
Details	mass density, 298.15 K [kg/m3]	mass density, 308.15 K [kg/m3]	mass density, 318.15 K [kg/m3]	viscosity, 298.15 K [mPa·s]	viscosity, 308.15 K [mPa·s]	viscosity, 318.15 K [mPa·s]
c1 = 0.001	997.1	994.2	990.6	0.8978	0.7436	0.6173
c1 = 0.003	997.3	994.3	990.7	0.9087	0.7516	0.6217
c1 = 0.005	997.4	994.4	990.8	0.9213	0.7596	0.6349
